Results on 27 molecules are retold here after ChEMBL document CHEMBL4483862, “Open-source discovery of chemical leads for next-generation chemoprotective antimalarials” (2018).

Where only a bound is given, the exact number is not on record here.

The experiment concerns Plasmodium berghei. In words: Luciferase/luciferin-expressing antifolate-resistant parasites were used to infect a culture of HepG2 cells that were pre-incubated with compounds. Infected hepatocytes emit light due to the luciferase reaction. Assay results are presented as the percent inhibition of light emission compared to control. […]. Type of experiment: functional. The settings on record: sporozoite; for IC90: read-out: LUCIFERASE INFECTION ASSAY - IC90.

Where [1] appears, read: read-out: LUCIFERASE INFECTION ASSAY - IC50.

One may read the IC50 as the point on the concentration scale where inhibition reaches its midpoint. The term IC90 denotes the concentration needed for an effect of 90%. Consider `O=C1/C(=C/c2ccc(F)cc2)COC/C1=C\c1ccc(F)cc1`, for which the IC90 is more than 10.6 µM. Further, the IC50 (HEPG2TOX_HILL_SLOPE 8.86, HEPG2TOX_R_SQUARED 0.951, read-out: LUCIFERASE INFECTION ASSAY - IC50) was more than 10.6 µM.
Take `Cc1ccccc1C(=O)Nc1nc2ccccn2c1C(=O)NC1CCCCC1`: the IC90 was more than 8.77 µM. In addition, the IC50 (HEPG2TOX_HILL_SLOPE 2.99, HEPG2TOX_R_SQUARED 0.96, PBLUC_HILL_SLOPE 20.4, PBLUC_R_SQUARED 0.198, read-out: LUCIFERASE INFECTION ASSAY - IC50) was 7.88 µM.
For `COc1ncccc1C(=O)Nc1ccccc1Cl`, the 90% effect concentration (IC90) was more than 12.6 µM. Further, the IC50 (HEPG2TOX_HILL_SLOPE 9.95, HEPG2TOX_R_SQUARED 0.955, PBLUC_HILL_SLOPE 2.98, PBLUC_R_SQUARED 0.38, read-out: LUCIFERASE INFECTION ASSAY - IC50) came to 12.2 µM.
In the case of `S=C(NCCc1ccc(Cl)cc1Cl)NC1CC2CCC1C2` (centres undefined), the IC90 was more than 10 µM. In addition, the IC50 under setting [1] is more than 10 µM.
As to `CCOc1ccccc1/C=C/C(=O)OCC(=O)Nc1ccccc1-c1ccccc1`, the concentration for an effect of 90% (IC90) was found to be 3.67 µM. Also, where the note is “HEPG2TOX_HILL_SLOPE 2.07, HEPG2TOX_R_SQUARED 0.949, PBLUC_HILL_SLOPE 25.6, PBLUC_R_SQUARED 0.535, read-out: LUCIFERASE INFECTION ASSAY - IC50”, the IC50 came to 3.37 µM.
For `CC(=O)c1cc2c(N)c(C(=O)OCc3cccc4ccccc34)sc2nc1C`, the 90% effect concentration (IC90) was more than 10 µM. The half-maximal inhibitory concentration (IC50) under setting [1] was more than 10 µM.
For `Cc1sc2nc(-c3cccs3)nc(N3CCN(C(=O)c4ccccc4)CC3)c2c1C`, the IC90 is more than 10 µM. The IC50 (PBLUC_HILL_SLOPE 1.78, PBLUC_R_SQUARED 0.529, read-out: LUCIFERASE INFECTION ASSAY - IC50) was determined as 4.85 µM.
Regarding `CC(C)C1CCC(C)C(OCC(O)CN2CCN(Cc3ccc4c(c3)OCO4)CC2)C1` (centres undefined), the IC90 is more than 10 µM. The half-maximal inhibitory concentration (IC50) under setting [1] is more than 10 µM.
In the case of `C=c1ccccc1=C1NN=C(Nc2ccc(F)c(F)c2F)O1`, the concentration for an effect of 90% (IC90) is more than 10 µM. Moreover, the IC50 (FFLUC_HILL_SLOPE 1.45, FFLUC_R_SQUARED 0.745, PBLUC_HILL_SLOPE 0.464, PBLUC_R_SQUARED 0.746, read-out: LUCIFERASE INFECTION ASSAY - IC50) is 0.97 µM.
With `O=C(COc1ccccc1CSc1ccc(Cl)cc1)N/N=C\c1ccc(Cl)cc1`, the IC90 is more than 7.41 µM. The IC50 (PBLUC_HILL_SLOPE 0.291, PBLUC_R_SQUARED 0.508, read-out: LUCIFERASE INFECTION ASSAY - IC50) was more than 7.41 µM.
In the case of `Cn1ncc2c(ON=C(N)c3ccc(C(C)(C)C)cc3)ncnc21`, the IC90 stood at 9.41 µM. In addition, the IC50 (HEPG2TOX_HILL_SLOPE 12.1, HEPG2TOX_R_SQUARED 0.899, PBLUC_HILL_SLOPE 18.6, PBLUC_R_SQUARED 0.286, read-out: LUCIFERASE INFECTION ASSAY - IC50) came to 8.36 µM.
On to `COc1ccc(-c2cn(CC(=O)c3ccccc3)c3[n+]2-c2ccccc2CC3)cc1`, for which the IC90 was more than 10 µM. Moreover, under “HEPG2TOX_HILL_SLOPE 1.82, HEPG2TOX_R_SQUARED 0.932, PBLUC_HILL_SLOPE 2.71, PBLUC_R_SQUARED 0.363, read-out: LUCIFERASE INFECTION ASSAY - IC50”, the IC50 amounted to 4.75 µM.
With `Cc1nn(-c2ccccc2)c(C)c1-c1nc(-c2ccccc2)no1`, the IC90 was determined as 5.81 µM. Also, the IC50 (FFLUC_HILL_SLOPE 123, FFLUC_R_SQUARED 0.665, PBLUC_HILL_SLOPE 0.902, PBLUC_R_SQUARED 0.808, read-out: LUCIFERASE INFECTION ASSAY - IC50) worked out at 0.508 µM.
For `N#Cc1cc(C(=O)c2cc(F)ccc2OC(=O)C2(c3ccccc3)CC2)cn(Cc2ccccc2)c1=O`, the 90% effect concentration (IC90) is more than 10 µM. Moreover, the IC50 under setting [1] is more than 10 µM.
Consider `COc1cc(OC)cc(-c2cn3c(-c4ccc5c(c4)OCO5)cnc3cn2)c1`, for which the IC90 was more than 8.79 µM. The IC50 (HEPG2TOX_HILL_SLOPE 7.71, HEPG2TOX_R_SQUARED 0.876, PBLUC_HILL_SLOPE 4.45, PBLUC_R_SQUARED 0.518, read-out: LUCIFERASE INFECTION ASSAY - IC50) worked out at 5.54 µM.
On to `CCc1cc2c(Nc3ccc4c(c3)OCO4)nc(C)nc2s1`, for which the 90% effect concentration (IC90) is more than 10 µM. For the setting “PBLUC_HILL_SLOPE 2.79, PBLUC_R_SQUARED 0.532, read-out: LUCIFERASE INFECTION ASSAY - IC50”, the IC50 is 6.73 µM.
For the molecule `Clc1ccc(-c2cn3c(-c4ccc5c(c4)OCO5)cnc3cn2)cc1`, the IC90 amounted to 6.85 µM. Moreover, the IC50 (HEPG2TOX_HILL_SLOPE 1.51, HEPG2TOX_R_SQUARED 0.989, PBLUC_HILL_SLOPE 1.79, PBLUC_R_SQUARED 0.647, read-out: LUCIFERASE INFECTION ASSAY - IC50) was 2.01 µM.
Turning to `Cc1cc(C)c2c(N)c(C(=O)NNC(=O)COc3ccc4c5c(c(=O)oc4c3)CCC5)sc2n1`, the IC90 is more than 10 µM. In addition, the IC50 under setting [1] is more than 10 µM.
As for `Cc1ccc(-n2c(C)cc(/C=C3\N=C4CCCCCN4C3=O)c2C)c(C)c1`, the IC90 was more than 10 µM. For the same molecule, under setting [1], the IC50 is more than 10 µM.
For the molecule `CCC(CC)CN1CCC2(CC1)C(=O)N(Cc1ccc(OC)cc1)C(=O)N2CC(C)C`, the IC90 is more than 7.68 µM. The IC50 under setting [1] is more than 7.68 µM.
With `CCOc1ccc2c(c1)sc(=N)n2Cc1ccc(Cl)cc1`, the IC90 is more than 10 µM. The IC50 (PBLUC_HILL_SLOPE 3.98, PBLUC_R_SQUARED 0.233, read-out: LUCIFERASE INFECTION ASSAY - IC50) came out at 6.2 µM.
For `CCNc1nc(CN2CCCCC2)nc2scc(-c3ccccc3)c12`, the IC90 worked out at 5.12 µM. The IC50 (PBLUC_HILL_SLOPE 4.71, PBLUC_R_SQUARED 0.781, read-out: LUCIFERASE INFECTION ASSAY - IC50) was 3.21 µM.
With `CCOC(=O)c1c(-c2ccccc2)csc1NC(=O)c1cc(-c2ccco2)nc2ccccc12`, the IC90 was 9.72 µM. The IC50 (FFLUC_HILL_SLOPE 28.5, FFLUC_R_SQUARED 0.474, PBLUC_HILL_SLOPE 2.84, PBLUC_R_SQUARED 0.759, read-out: LUCIFERASE INFECTION ASSAY - IC50) is 4.48 µM.
Take `Cc1c(C)c(C)c(S(=O)(=O)Oc2ccccc2N2CC(C)OC(C)C2)c(C)c1C` (centres undefined): the IC90 was more than 7.9 µM. Further, the IC50 (PBLUC_HILL_SLOPE 5.73, PBLUC_R_SQUARED 0.021, read-out: LUCIFERASE INFECTION ASSAY - IC50) was more than 7.9 µM.
In the case of `CN1CCN(c2ccc(-c3cn4c(-c5ccc(CO)cc5)cnc4cn3)cc2)CC1`, the IC90 was more than 8.26 µM. For the same molecule, the half-inhibitory concentration (IC50) (PBLUC_HILL_SLOPE 2.22, PBLUC_R_SQUARED 0.0391, read-out: LUCIFERASE INFECTION ASSAY - IC50) is more than 8.26 µM.
For `CS(=O)(=O)Nc1ccc(-c2csc(NC(=O)c3sc4sccc4c3Cl)n2)cc1`, the IC90 is 9.72 µM. The IC50 (HEPG2TOX_HILL_SLOPE 8.43, HEPG2TOX_R_SQUARED 0.307, PBLUC_HILL_SLOPE 11.2, PBLUC_R_SQUARED 0.136, read-out: LUCIFERASE INFECTION ASSAY - IC50) was 7.99 µM.
Consider `COc1cccc(CC(=O)Nc2nc3ccc(C)cn3c2C(=O)NC2CCCC2)c1`, for which the 90% effect concentration (IC90) is more than 8.12 µM. The IC50 under setting [1] was more than 8.12 µM.
